# Paper PMC9850473, “Three-Component Reaction of 3-Formyl-6-Methylchromone, Primary Amines, and Secondary Phosphine Oxides: A Synthetic and Mechanistic Study” (ACS Omega, 2022)
# How the values were obtained:
# [1] = In vitro cytotoxicity, fluorescent Resazurin assay, NIH/3T3; conditions: mouse, NIH/3T3 fibroblast cells
# Description: (§1) The in vitro cytotoxicity of the several synthesized compounds was also investigated. […] During the measurements, the fluorescent Resazurin assay as described previously was applied.[19]
# (§2) Cells were purchased from the American Type Culture Collection (ATCC, Manassas, Virginia, USA). Human lung adenocarcinoma A549 cells were maintained in Dulbecco’s modified Eagle’s medium (DMEM), while mouse fibroblast NIH/3T3 and human promyelocytic leukemia HL-60 cells were maintained in Roswell Park Memorial Institute 1640 medium (RPMI-1640) containing 10% FCS. Media were supplemented with 2 mM GlutaMAX, 100 U/mL penicillin, and 100 μg/mL streptomycin (Life Technologies, Carlsbad, California, USA). Cell cultures were maintained at 37 °C in a humidified incubator in an atmosphere of 5% CO2 (Sanyo, Japan).
# (§3) Cytotoxicity of the synthesized molecules was determined on A549, NIH/3T3, and HL-60 cells using the fluorescent Resazurin assay as described previously.[19]
# (§4) Briefly, cells (A549 and NIH/3T3: 6000, HL-60: 120.000 cells/well) were seeded into 96-well plates (Corning Life Sciences) in media and incubated overnight. Test compounds were dissolved in 3-fold amounts of dimethyl sulfoxide (DMSO). Cells were treated with an increasing concentration of test compounds (1–30 μM). […] Cell viability was determined after 72 h incubation. Resazurin reagent (Sigma-Aldrich) was added at a final concentration of 25 μg/mL. After a 2 h incubation for at 37 °C, 5% CO2, fluorescence (530 nm excitation/580 nm emission) was recorded on a multimode microplate reader (Cytofluor4000, PerSeptive Biosytems). Viability was calculated with relation to untreated control cells and blank wells containing media without cells.
# [2] = In vitro cytotoxicity, fluorescent Resazurin assay, A549; type: cell-based; conditions: human, A549 lung adenocarcinoma cells, 72 h incubation, 1–30 μM, mean ± standard deviation
# [3] = In vitro cytotoxicity, fluorescent Resazurin assay, HL60; conditions: human, HL60 (HL-60) promyelocytic leukemia cells, In vitro cytotoxicity [IC50, μM] HL60, HL60 cells, 72 h incubation, 1–30 μM, mean ± standard deviation
# Description: as §1, §2, §3, §4
# [4] = test system: human promyelocytic leukemia (HL60) cell line; assay: as above; conditions: read-out: In vitro cytotoxicity [IC50, μM] HL60, HL60 cells, 72 h incubation, 1–30 μM, mean ± standard deviation
# Description: as §1, §2, §3, §4
SMILES,melting point [°C],IC50 at 72 h [1] [µM],IC50 at 72 h [2] [µM],IC50 at 72 h [3] [µM],IC50 [4] [µM]
"Cc1ccc(P(=O)(c2ccc(C)cc2)C(Nc2ccccc2)c2coc3ccc(C)cc3c2=O)cc1 (stereo not shown) [compound 4, 3-[(Phenylamino)(di-p-tolylphosphoryl)methyl]-6-methyl-4H-chromen-4-one]",245 to 246,,,,
"Cc1ccc2c(c1)C(=O)/C(=C/NC1CCCCC1)C(P(=O)(c1ccc3ccccc3c1)c1ccc3ccccc3c1)O2 (stereo not shown) [9b, (Z)-3-[(Cyclohexylamino)methylene]-2-[di(naphthalen-2-yl)phosphoryl]-6-methylchroman-4-one]",171 to 172,,,,
"Cc1cc(C)cc(P(=O)(c2cc(C)cc(C)c2)C2Oc3ccc(C)cc3C(=O)/C2=C/NCc2ccccc2)c1 (stereo not shown) [8d, (Z)-3-[(benzylamino)methylene]-2-[bis(3,5-dimethylphenyl)phosphoryl]-6-methylchroman-4-one]",,14.2 ± 1.12,18.5 ± 1.08,~15,13.2 ± 1.32
"Cc1ccc2c(c1)C(=O)/C(=C/NCCO)C(P(=O)(c1ccccc1)c1ccccc1)O2 (stereo not shown) [2g, (Z)-3-[(Ethanolamino)methylene]-2-(diphenylphosphoryl)-6-methylchroman-4-one]",181 to 182,20.7 ± 1.02,> 30,> 30,
"CCCCN/C=C1/C(=O)c2cc(C)ccc2OC1P(=O)(c1ccc(C)cc1)c1ccc(C)cc1 (stereo not shown) [7a, (Z)-3-[(Butylamino)methylene]-2-(di-p-tolylphosphoryl)-6-methylchroman-4-one]",186 to 187,,,,
"CCCCN/C=C1/C(=O)c2cc(C)ccc2OC1P(=O)(c1ccc2ccccc2c1)c1ccc2ccccc2c1 (stereo not shown) [9a, (Z)-3-[(Butylamino)methylene]-2-[di(naphthalen-2-yl)phosphoryl]-6-methylchroman-4-one]",192 to 193,,,,
"Cc1ccc2c(c1)C(=O)/C(=C/NC(c1ccccc1)c1ccccc1)C(P(=O)(c1ccccc1)c1ccccc1)O2 (stereo not shown) [2e, (Z)-3-[(Benzhydrylamino)methylene]-2-(diphenylphosphoryl)-6-methylchroman-4-one]",182 to 183,> 30,> 30,9.91 ± 1.28,
"Cc1ccc2c(c1)C(=O)/C(=C/NC1CCCCC1)C(P(=O)(c1ccccc1)c1ccccc1)O2 (stereo not shown) [2c, (Z)-3-[(Cyclohexylamino)methylene]-2-(diphenylphosphoryl)-6-methylchroman-4-one]",198 to 199,,,,
"COc1ccc(NC(c2coc3ccc(C)cc3c2=O)P(=O)(c2ccccc2)c2ccccc2)cc1 (stereo not shown) [1c, 3-[(4-Methoxyphenylamino)(diphenylphosphoryl)methyl]-6-methyl-4H-chromen-4-one]",224 to 225,,,,
"Cc1ccc2c(c1)C(=O)/C(=C/Nc1ccccc1)C(P(=O)(c1ccccc1)c1ccccc1)O2 (stereo not shown) [2b, (Z)-3-[(Phenylamino)methylene]-2-(diphenylphosphoryl)-6-methylchroman-4-one]",243 to 244,,,,
"Cc1cc(C)cc(P(=O)(c2cc(C)cc(C)c2)C2Oc3ccc(C)cc3C(=O)/C2=C/NC2CCCCC2)c1 (stereo not shown) [8c, (Z)-2-[Bis(3,5-dimethylphenyl)phosphoryl]-3-[(cyclohexylamino)methylene]-6-methylchroman-4-one]",155 to 156,> 30,> 30,~15,
"Cc1cc(C)cc(P(=O)(c2cc(C)cc(C)c2)C(Nc2ccccc2)c2coc3ccc(C)cc3c2=O)c1 (stereo not shown) [compound 5, 3-{(Phenylamino)[bis(3,5-dimethylphenyl)phosphoryl]methyl}-6-methyl-4H-chromen-4-one]",229 to 230,,,,
"Cc1ccc2occ(C(Nc3ccc(Cl)cc3)P(=O)(c3ccccc3)c3ccccc3)c(=O)c2c1 (stereo not shown) [1d, 3-[(4-Chlorophenylamino)(diphenylphosphoryl)methyl]-6-methyl-4H-chromen-4-one]",235 to 236,,,,
"Cc1ccc2occ(C(Nc3ccccc3)P(=O)(c3ccccc3)c3ccccc3)c(=O)c2c1 (stereo not shown) [1b, 3-[(Phenylamino)(diphenylphosphoryl)methyl]-6-methyl-4H-chromen-4-one]",239 to 240,,,,
"CCCCN/C=C1/C(=O)c2cc(C)ccc2OC1P(=O)(c1ccccc1)c1ccccc1 (stereo not shown) [2a, (Z)-3-[(Butylamino)methylene]-2-(diphenylphosphoryl)-6-methylchroman-4-one]",192 to 193,,,,
"Cc1ccc(P(=O)(c2ccc(C)cc2)C2Oc3ccc(C)cc3C(=O)/C2=C/NCc2ccccc2)cc1 (stereo not shown) [7c, (Z)-3-[(Benzylamino)methylene]-2-(di-p-tolylphosphoryl)-6-methylchroman-4-one]",198 to 199,,,,
"Cc1ccc2c(c1)C(=O)/C(=C/NCCCO)C(P(=O)(c1ccccc1)c1ccccc1)O2 (stereo not shown) [2f, (Z)-3-[(Propanolamino)methylene]-2-(diphenylphosphoryl)-6-methylchroman-4-one]",176 to 177,> 30,> 30,27.4 ± 1.13,
"CCCCNC(c1coc2ccc(C)cc2c1=O)P(=O)(c1ccccc1)c1ccccc1 (stereo not shown) [1a, 3-[(Butylamino)(diphenylphosphoryl)methyl]-6-methyl-4H-chromen-4-one]",187 to 188,,,,
"Cc1ccc(P(=O)(c2ccc(C)cc2)C2Oc3ccc(C)cc3C(=O)/C2=C/NC2CCCCC2)cc1 (stereo not shown) [7b, (Z)-3-[(Cyclohexylamino)methylene]-2-(di-p-tolylphosphoryl)-6-methylchroman-4-one]",205 to 206,,,,
"Cc1ccc2occ(C(Nc3ccccc3)P(=O)(c3ccc4ccccc4c3)c3ccc4ccccc4c3)c(=O)c2c1 (stereo not shown) [compound 6, 3-{(Phenylamino)[di(naphthalen-2-yl)phosphoryl]methyl}-6-methyl-4H-chromen-4-one]",223 to 224,,,,
"CC(C)C[C@H](NC(=O)[C@H](Cc1ccccc1)NC(=O)c1cnccn1)B(O)O [bortezomib, reference compound]",,,,0.00742,
"Cc1ccc2occ(C(O)P(=O)(c3ccccc3)c3ccccc3)c(=O)c2c1 (stereo not shown) [compound 3, 3-[(Diphenylphosphoryl)(hydroxy)methyl]-6-methyl-4H-chromen-4-one]",190 to 192,,,,
"CCCCN/C=C1/C(=O)c2cc(C)ccc2OC1P(=O)(c1cc(C)cc(C)c1)c1cc(C)cc(C)c1 (stereo not shown) [8a, (Z)-2-[Bis(3,5-dimethylphenyl)phosphoryl]-3-[(butylamino)methylene]-6-methyl-chroman-4-one]",145 to 146,> 30,> 30,~15,14.8 ± 1.13
"Cc1ccc2c(c1)C(=O)/C(=C/NCc1ccccc1)C(P(=O)(c1ccccc1)c1ccccc1)O2 (stereo not shown) [2d, (Z)-3-[(Benzylamino)methylene]-2-(diphenylphosphoryl)-6-methylchroman-4-one]",196 to 197,,,,
